The text below walks through data of patent publication US20070049593A1 (priority 2004, published 2007).

The target in the assay is T1, HCV polymerase (Hepatitis C virus genotype 1b, UniProt P26663).
T1 construct: a region encoding NS5B (J Virol 1991 March, 65(3), 1105-13, 544 amino acids after deletion of 47 amino acids on the C-terminal); 6xHis (C); made in house; host or cells: Escherichia coli
Kind of assay: biochemical. More on the design: species or system HCV BK strain. In short, it runs like this:
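His-tagged NS5B (BK strain, 47-aa C-terminal deletion, E. coli-expressed) at 0.5 μg/ml copied 5 μg/ml run-off RNA bearing the HCV 3′ UTR with 2 μM UTP plus [3H]UTP, 50 μM ATP/GTP, in pH 7.5 Tris with 5 mM MgCl2, 25 °C, 90 min. TCA-precipitated RNA was counted and IC50 calculated.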

Where a name gives a salt, the structure may show the parent alone. Where only a bound is given, the exact number is not on record here.

T1 sequence (P26663 2420-2963): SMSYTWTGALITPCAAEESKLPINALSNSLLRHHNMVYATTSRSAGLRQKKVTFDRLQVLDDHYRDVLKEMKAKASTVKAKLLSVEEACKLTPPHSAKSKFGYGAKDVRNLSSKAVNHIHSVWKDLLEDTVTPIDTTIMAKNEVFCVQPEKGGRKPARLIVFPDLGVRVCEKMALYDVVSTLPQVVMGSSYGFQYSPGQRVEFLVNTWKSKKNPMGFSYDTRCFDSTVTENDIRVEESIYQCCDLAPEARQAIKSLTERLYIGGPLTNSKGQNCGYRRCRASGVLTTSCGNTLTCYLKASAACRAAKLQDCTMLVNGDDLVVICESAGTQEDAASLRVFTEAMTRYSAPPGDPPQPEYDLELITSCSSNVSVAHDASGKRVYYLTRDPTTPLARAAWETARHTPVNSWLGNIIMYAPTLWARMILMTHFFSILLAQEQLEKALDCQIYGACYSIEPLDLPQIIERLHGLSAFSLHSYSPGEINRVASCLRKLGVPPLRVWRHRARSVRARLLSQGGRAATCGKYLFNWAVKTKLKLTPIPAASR

Consider `CN(C)CCN1CCn2c(c(C3CCCCC3)c3ccc(C(=O)O)cc32)-c2ccc(OCc3cccc(C(=O)O)c3)cc21` [Example 1-586, 3-(3-carboxybenzyloxy)-13-cyclohexyl-5-(2-dimethylaminoethyl)-6,7-dihydro-5H-benzo[5,6][1,4]diazepino[7,1-a]indole-10-carboxylic acid dihydrochloride], for which the 50% inhibitory concentration (IC50) is below 100 nM.
With `CN(C)CCN1CCn2c(c(C3CCCCC3)c3ccc(C(=O)O)cc32)-c2ccc(OCc3cccc(C(=O)N(C)C)c3)cc21` [Example 1-587, 13-cyclohexyl-5-(2-dimethylaminoethyl)-3-(3-dimethylcarbamoylbenzyloxy)-6,7-dihydro-5H-benzo[5,6][1,4]diazepino[7,1-a]indole-10-carboxylic acid dihydrochloride] the figure was below 100 nM; with `Cc1ccc2c(c1)N(CCc1nc(C)cs1)CCn1c-2c(C2CCCCC2)c2ccc(C(=O)O)cc21` [Example 1-588, 13-cyclohexyl-3-methyl-5-[2-(4-methylthiazol-2-yl)ethyl]-6,7-dihydro-5H-benzo[5,6][1,4]diazepino[7,1-a]indole-10-carboxylic acid], below 100 nM; with `Cc1cccc(COc2ccc3c(c2)N(CCN(C)C)CCn2c-3c(C3CCCCC3)c3ccc(C(=O)O)cc32)n1` [Example 1-589, 13-cyclohexyl-5-(2-dimethylaminoethyl)-3-(6-methylpyridin-2-ylmethoxy)-6,7-dihydro-5H-benzo[5,6][1,4]diazepino[7,1-a]indole-10-carboxylic acid trihydrochloride], below 100 nM.
Under `CNC(=O)c1cccc(COc2ccc3c(c2)N(CCN(C)C)CCn2c-3c(C3CCCCC3)c3ccc(C(=O)O)cc32)c1` [Example 1-590, 13-cyclohexyl-5-(2-dimethylaminoethyl)-3-(3-methylcarbamoylbenzyloxy)-6,7-dihydro-5H-benzo[5,6][1,4]diazepino[7,1-a]indole-10-carboxylic acid dihydrochloride] stands below 100 nM.
With `CN(C)CCN1CCn2c(c(C3CCCCC3)c3ccc(C(=O)O)cc32)-c2ccc(OCc3cccc(N(C)C)c3)cc21` [Example 1-591, 13-cyclohexyl-3-(3-dimethylaminobenzyloxy)-5-(2-dimethylaminoethyl)-6,7-dihydro-5H-benzo[5,6][1,4]diazepino[7,1-a]indole-10-carboxylic acid trihydrochloride], the IC50 was below 100 nM.
As to `CCOc1ccc2c(c1)N(C)CCn1c-2c(C2CCCCC2)c2ccc(C(=O)O)cc21` [Example 1-592, 13-cyclohexyl-3-ethoxy-5-methyl-6,7-dihydro-5H-benzo[5,6][1,4]diazepino[7,1-a]indole-10-carboxylic acid], the 50% inhibitory concentration (IC50) was below 100 nM.
With `CN1CCn2c(c(C3CCCCC3)c3ccc(C(=O)O)cc32)-c2ccc(OCc3ccccc3)cc21` [Example 1-593, 3-benzyloxy-13-cyclohexyl-5-methyl-6,7-dihydro-5H-benzo[5,6][1,4]diazepino[7,1-a]indole-10-carboxylic acid] the figure was below 100 nM; with `COc1ccc2c(c1)N(C)CCn1c-2c(C2CCCCC2)c2ccc(C(=O)O)cc21` [Example 1-594, 13-cyclohexyl-3-methoxy-5-methyl-6,7-dihydro-5H-benzo[5,6][1,4]diazepino[7,1-a]indole-10-carboxylic acid], below 100 nM; with `O=C(O)c1ccc2c(C3CCCCC3)c3n(c2c1)CCN(CCN1CCCCC1)c1cc(OCc2ccccn2)ccc1-3` [Example 1-595, 13-cyclohexyl-5-[2-(piperidin-1-yl)ethyl]-3-(pyridin-2-ylmethoxy)-6,7-dihydro-5H-benzo[5,6][1,4]diazepino[7,1-a]indole-10-carboxylic acid trihydrochloride], below 100 nM.
The molecule `CCOc1ccc2c(c1)N(C)CCn1c-2c(C2CCCCC2)c2ccc(C(=O)NC(C)(C)C(=O)Nc3ccc(/C=C/C(=O)O)cc3)cc21` [Example 1-615, (E)-3-(4-{2-[(13-cyclohexyl-3-ethoxy-5-methyl-6,7-dihydro-5H-benzo[5,6][1,4]diazepino[7,1-a]indole-10-carbonyl)amino]-2-methylpropionylamino}phenyl)acrylic acid] yielded an IC50 below 100 nM.
Under `CCOc1ccc2c(c1)N(C)CCn1c-2c(C2CCCCC2)c2ccc(C(=O)NC3(C(=O)Nc4cccc(/C=C/C(=O)O)c4)CCC3)cc21` [Example 1-616, (E)-3-[3-({1-[(13-cyclohexyl-3-ethoxy-5-methyl-6,7-dihydro-5H-benzo[5,6][1,4]diazepino[7,1-a]indole-10-carbonyl)amino]cyclobutanecarbonyl}amino)phenyl]acrylic acid] stands below 100 nM; under `CCOc1ccc2c(c1)N(C)CCn1c-2c(C2CCCCC2)c2ccc(C(=O)NC3(C(=O)Nc4ccc(/C=C/C(=O)O)cc4OC)CCC3)cc21` [Example 1-617, (E)-3-[4-({1-[(13-cyclohexyl-3-ethoxy-5-methyl-6,7-dihydro-5H-benzo[5,6][1,4]diazepino[7,1-a]indole-10-carbonyl)amino]cyclobutanecarbonyl}amino)-3-methoxyphenyl]acrylic acid], below 100 nM.
Under `CCOc1ccc2c(c1)N(C)CCn1c-2c(C2CCCCC2)c2ccc(C(=O)NC3(C(=O)Nc4ccc(Cl)c(/C=C/C(=O)O)c4)CCC3)cc21` [Example 1-618, (E)-3-[2-chloro-5-({1-[(13-cyclohexyl-3-ethoxy-5-methyl-6,7-dihydro-5H-benzo[5,6][1,4]diazepino[7,1-a]indole-10-carbonyl)amino]cyclobutanecarbonyl}amino)phenyl]acrylic acid] stands below 100 nM; under `CCOc1ccc2c(c1)N(C)CCn1c-2c(C2CCCCC2)c2ccc(C(=O)NC3(C(=O)Nc4ccc(OC)c(/C=C/C(=O)O)c4)CCC3)cc21` [Example 1-619, (E)-3-[5-({1-[(13-cyclohexyl-3-ethoxy-5-methyl-6,7-dihydro-5H-benzo[5,6][1,4]diazepino[7,1-a]indole-10-carbonyl)amino]cyclobutanecarbonyl}amino)-2-methoxyphenyl]acrylic acid], below 100 nM; under `CCOc1ccc2c(c1)N(C)CCn1c-2c(C2CCCCC2)c2ccc(C(=O)NC3(C(=O)Nc4ccc(C)c(/C=C/C(=O)O)c4)CCC3)cc21` [Example 1-620, (E)-3-[5-({1-[(13-cyclohexyl-3-ethoxy-5-methyl-6,7-dihydro-5H-benzo[5,6][1,4]diazepino[7,1-a]indole-10-carbonyl)amino]cyclobutanecarbonyl}amino)-2-methylphenyl]acrylic acid], below 100 nM.
With `CCOc1ccc2c(c1)N(C)CCn1c-2c(C2CCCCC2)c2ccc(C(=O)NC3(C(=O)Nc4ccc(/C=C/C(=O)O)c(C)c4)CCC3)cc21` [Example 1-621, (E)-3-[4-({1-[(13-cyclohexyl-3-ethoxy-5-methyl-6,7-dihydro-5H-benzo[5,6][1,4]diazepino[7,1-a]indole-10-carbonyl)amino]cyclobutanecarbonyl}amino)-2-methylphenyl]acrylic acid] the figure was below 100 nM.
Take `CCOc1ccc2c(c1)N(C)CCn1c-2c(C2CCCCC2)c2ccc(C(=O)NC3(C(=O)Nc4ccc(/C=C/C(=O)O)c(OC)c4)CCC3)cc21` [Example 1-622, (E)-3-[4-({1-[(13-cyclohexyl-3-ethoxy-5-methyl-6,7-dihydro-5H-benzo[5,6][1,4]diazepino[7,1-a]indole-10-carbonyl)amino]cyclobutanecarbonyl}amino)-2-methoxyphenyl]acrylic acid]: the IC50 was below 100 nM.
With `CCOc1ccc2c(c1)N(C)CCn1c-2c(C2CCCCC2)c2ccc(C(=O)NC3(C(=O)Nc4ccc(C=CC(=O)O)c(Cl)c4)CCC3)cc21` [Example 1-623, (E)-3-[2-chloro-4-({1-[(13-cyclohexyl-3-ethoxy-5-methyl-6,7-dihydro-5H-benzo[5,6][1,4]diazepino[7,1-a]indole-10-carbonyl)amino]cyclobutanecarbonyl}amino)phenyl]acrylic acid] the figure was below 100 nM; with `O=C(O)c1ccc2c(C3CCCCC3)c3n(c2c1)CCOc1cc(OCc2ccccc2)ccc1-3` [Example 2-3, 3-benzyloxy-12-cyclohexyl-6,7-dihydro-5-oxa-7a-azadibenzo[a,e]azulene-9-carboxylic acid], below 100 nM; with `COc1ccc2c(c1)OCCn1c-2c(C2CCCCC2)c2ccc(C(=O)O)cc21` [Example 2-4, 12-cyclohexyl-3-methoxy-6,7-dihydro-5-oxa-7a-azadibenzo[a,e]azulene-9-carboxylic acid], below 100 nM.
Take `O=C(O)c1ccc2c(C3CCCCC3)c3n(c2c1)CCOc1cc(OCc2cc(N4CCCC4=O)ccc2N2CCOCC2)ccc1-3` [Example 2-5, 12-cyclohexyl-3-[2-(morpholin-4-yl)-5-(2-oxopyrrolidin-1-yl)benzyloxy]-6,7-dihydro-5-oxa-7a-azadibenzo[a,e]azulene-9-carboxylic acid monohydrochloride]: the half-inhibitory concentration (IC50) was below 100 nM.
`COc1ccc2c(c1)-c1c(C3CCCCC3)c3ccc(C(=O)O)cc3n1CCO2` [Example 2-6, 12-cyclohexyl-2-methoxy-6,7-dihydro-5-oxa-7a-azadibenzo[a,e]azulene-9-carboxylic acid] came in with a half-maximal inhibitory concentration (IC50) of 100 to 1000 nM.
Take `O=C(O)c1ccc2c(C3CCCCC3)c3n(c2c1)CCOc1cc(OCc2ccc(N4CCCC4=O)cc2N2CCOCC2)ccc1-3` [Example 2-9, 12-cyclohexyl-3-[2-(morpholin-4-yl)-4-(2-oxopyrrolidin-1-yl)benzyloxy]-6,7-dihydro-5-oxa-7a-azadibenzo[a,e]azulene-9-carboxylic acid]: the IC50 is below 100 nM.
Under `CC(C)(C)OC(=O)N1CCC(Oc2ccc3c(c2)OCCn2c-3c(C3CCCCC3)c3ccc(C(=O)O)cc32)CC1` [Example 2-10, 3-(1-tert-butoxycarbonylpiperidin-4-yloxy)-12-cyclohexyl-6,7-dihydro-5-oxa-7a-azadibenzo[a,e]azulene-9-carboxylic acid] stands below 100 nM.

The term IC50 denotes the concentration needed to halve the response being measured. A high value points to lower potency.
